Reference: patent US5874445A, “(+) -α- (2,3-dimethoxyphenyl)-1-(2-(4-fluorephenyl) ethyl)-4-piepridinemethanol” (Merrell Pharmaceutical, Inc., priority 1997, dated 1999)
Read-outs that look alike come from different tables or passages of the source. One block for each molecule: values may come before it.

How the values were obtained:
5HT2 receptor = target: T1, 5HT2 receptor (Mus musculus, UniProt P35363); assay: (5-MeO-DMT) head twitch test; format: in vivo, mice; details: ip, read-out: ED50 FOR ABOLITION OF HEAD TWITCH
T1 construct: The administration of 5-methoxy-N,N-dimethyltryptamine 5-MeO-DMT to mice typically produces a characteristic head twitch in the mice; from tissue; host or cells: living mice (in vivo, endogenous receptor)
Procedure: Psychopharmacol., Vol. 3, pages 89-92, (1979). The administration of 5-methoxy-N,N-dimethyltryptamine 5-MeO-DMT to mice typically produces a characteristic head twitch in the mice. In this test, the mice are administered 5-MeO-DMT and a test compound. An absence of head twitches in the mice is considered to be predictive of the ability of the test compound to antagonize the 5HT2 receptor in vivo.

thrombus formation = details: canine models; Bush et al., Drug Development Research, Vol. 7, 319-340 (1986); cited from earlier work
coronary vessel = details: patients with stable angina; Golino et al, NEJM 1991; 324:641-648; cited from earlier work
[1] = system: preference for both alcohol and cocaine; details: rodent model of drug abuse; Meert et al; cited from earlier work
coronary vessels = details: patients with stable angina, intracoronary infusion, McFadden et al, cited from earlier work
[2] = mice, 5-MeO-DMT induced head twitch

T1 sequence (P35363 whole entry): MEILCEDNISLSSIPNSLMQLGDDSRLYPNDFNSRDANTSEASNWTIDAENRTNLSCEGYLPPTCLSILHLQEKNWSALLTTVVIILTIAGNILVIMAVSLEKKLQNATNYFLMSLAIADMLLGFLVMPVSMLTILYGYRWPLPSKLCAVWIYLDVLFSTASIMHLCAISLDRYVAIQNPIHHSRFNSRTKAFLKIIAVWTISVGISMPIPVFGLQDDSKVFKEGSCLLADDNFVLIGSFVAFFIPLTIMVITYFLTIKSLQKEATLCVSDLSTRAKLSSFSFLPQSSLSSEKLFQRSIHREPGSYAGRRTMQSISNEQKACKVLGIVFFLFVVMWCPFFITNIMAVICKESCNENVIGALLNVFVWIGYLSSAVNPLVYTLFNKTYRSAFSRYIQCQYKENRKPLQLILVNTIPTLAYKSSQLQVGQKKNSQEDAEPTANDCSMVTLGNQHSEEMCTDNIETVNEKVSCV

ED50 (5HT2 receptor; [2]): 3.28 mg/kg
Compound: OC(c1ccccc1)C1CCN(CCc2ccccc2)CC1 (racemic) [Compound B racemic, α-phenyl-1-(2-phenylethyl)-4-piperidinemethanol]

Compound: COc1cccc(C(O)C2CCN(CCc3ccccc3)CC2)c1OC (racemic) [Compound C racemic, α-(2,3-dimethoxyphenyl)-1-(2-phenylethyl)-4-piperidinemethanol]
ED50 (5HT2 receptor): 2.04 mg/kg

ED50 (5HT2 receptor; [2]): 0.87 mg/kg
Compound: OC(c1ccccc1)C1CCN(CCc2ccccc2)CC1 (single isomer, unassigned) [Compound B (+)-isomer, α-phenyl-1-(2-phenylethyl)-4-piperidinemethanol]

Compound: COc1cccc(C(O)C2CCN(CCc3ccc(F)cc3)CC2)c1OC (single isomer, unassigned) [Invention, (+)-α-(2,3-dimethoxyphenyl)-1-[2-(4-fluorophenyl)ethyl]-4-piperidinemethanol]
ED50 (5HT2 receptor): 0.03 mg/kg

Compound: O=C(c1ccc(F)cc1)C1CCN(CCn2c(=O)[nH]c3ccccc3c2=O)CC1 [Ketanserin]
preventing thrombus formation (thrombus formation): extremely effective in preventing thrombus formation
coronary vessel constriction (coronary vessel): blocked coronary vessel constriction in patients with stable angina

Compound: Cc1nc2sccn2c(=O)c1CCN1CCC(=C(c2ccc(F)cc2)c2ccc(F)cc2)CC1 [ritanserin]
preference for both alcohol and cocaine [1]: abolished the preference for both alcohol and cocaine

Compound: NCCc1c[nH]c2ccc(O)cc12 [serotonin]
anginal attacks during infusions (coronary vessels): experienced anginal attacks during these infusions
constriction of the coronary vessels (coronary vessels; all concentrations tested, NEJM 1991, 324:648-654): induced constriction of the coronary vessels in these patients at all concentrations tested
